Active and inactive are the calls of the source. The rule behind the calls is not given here.
Columns and labels:
[1] = Toxicity in C57BL/6 mouse assessed as induction of leukopenia up to 50 mg/kg, ip administered for 5 days/week for two cycles; assay type: organism-based; conditions: in vivo, 120 h
[2] = molecular target: T1, Protein deacetylase HDAC6 (Homo sapiens) (UniProt Q9UBN7); experiment: Inhibition of HDAC6 in HEK293 cells harboring human Foxp3 assessed as induction of Foxp3 hyperacetylation in whole cell lysates at 500 nM incubated for 6 hrs by SDS-PAGE based Western blot analysis; assay type: subcellular; conditions: Lysate
T1 sequence (whole entry): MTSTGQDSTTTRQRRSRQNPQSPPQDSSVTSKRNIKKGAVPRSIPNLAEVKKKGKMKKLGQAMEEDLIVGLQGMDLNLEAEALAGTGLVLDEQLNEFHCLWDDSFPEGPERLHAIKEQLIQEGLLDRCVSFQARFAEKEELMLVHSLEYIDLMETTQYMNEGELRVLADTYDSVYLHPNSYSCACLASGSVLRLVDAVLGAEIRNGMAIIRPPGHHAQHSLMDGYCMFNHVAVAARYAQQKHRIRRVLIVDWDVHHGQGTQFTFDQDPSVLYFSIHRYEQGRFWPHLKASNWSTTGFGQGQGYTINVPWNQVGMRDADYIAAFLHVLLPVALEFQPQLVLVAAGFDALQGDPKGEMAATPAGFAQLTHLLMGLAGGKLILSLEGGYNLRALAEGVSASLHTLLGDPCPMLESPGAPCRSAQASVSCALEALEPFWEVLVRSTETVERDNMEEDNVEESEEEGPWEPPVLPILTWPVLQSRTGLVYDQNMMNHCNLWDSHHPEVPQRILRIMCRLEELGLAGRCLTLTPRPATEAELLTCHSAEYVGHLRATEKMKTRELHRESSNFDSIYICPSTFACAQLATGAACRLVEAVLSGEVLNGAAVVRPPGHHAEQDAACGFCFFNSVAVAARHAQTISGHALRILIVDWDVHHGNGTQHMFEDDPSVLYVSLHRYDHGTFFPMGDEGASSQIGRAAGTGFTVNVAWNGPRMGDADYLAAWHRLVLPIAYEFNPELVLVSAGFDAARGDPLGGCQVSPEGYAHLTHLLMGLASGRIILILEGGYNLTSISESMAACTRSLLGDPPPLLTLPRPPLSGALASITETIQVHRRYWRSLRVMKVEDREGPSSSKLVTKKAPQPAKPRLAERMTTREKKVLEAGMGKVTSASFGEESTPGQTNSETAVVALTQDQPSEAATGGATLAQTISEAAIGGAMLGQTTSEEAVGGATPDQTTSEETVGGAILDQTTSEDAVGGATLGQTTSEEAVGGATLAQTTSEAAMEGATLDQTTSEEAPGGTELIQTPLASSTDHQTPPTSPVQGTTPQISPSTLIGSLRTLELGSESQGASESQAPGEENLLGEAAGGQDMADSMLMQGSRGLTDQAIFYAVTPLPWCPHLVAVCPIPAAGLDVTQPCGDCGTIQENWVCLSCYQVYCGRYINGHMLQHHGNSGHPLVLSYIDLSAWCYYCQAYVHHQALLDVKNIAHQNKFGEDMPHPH

Mus musculus [3] = experiment: Ratio of in vivo inhibition of HDAC6 in C57BL/6 mouse assessed as fold increase in acetylated tubulin level in spleen cytosolic protein extract to in vivo inhibition of HDAC in C57BL/6 mouse assessed as fold increase in acetylated-histone H3 level in spleen nuclear protein extracts
[4] = Toxicity in C57BL/6 mouse assessed as effect on postural changes up to 50 mg/kg, ip administered for 5 days/week for two cycles and measured daily starting from day 1; assay type: organism-based; conditions: in vivo, 120 h
[5] = Toxicity in C57BL/6 mouse assessed as effect on grooming up to 50 mg/kg, ip administered for 5 days/week for two cycles; assay type: organism-based; conditions: in vivo, 120 h
697 = experiment: Cytotoxicity against human 697 cells after 48 hrs by CellTiter 96 aqueous one solution assay; assay type: cell-based; conditions: Homo sapiens, 697, 48 h
[6] = Apparent volume of distribution at steady state in CD-1 mouse at […], iv measured within 6 hrs by LC-MS/MS analysis; assay type: ADME, organism-based; conditions: in vivo, read-out: Vdss(app)
[7] = Toxicity in C57BL/6 mouse assessed as induction of diarrhea up to 50 mg/kg, ip administered for 5 days/week for two cycles and measured daily starting from day 1; assay type: organism-based; conditions: in vivo, 120 h
[8] = Stability in human liver S9 fraction assessed as parent compound remaining at 5 uM after 90 mins in presence of NADPH by LC-MS/MS analysis; assay type: ADME, subcellular; conditions: read-out: Stability
[9] = Toxicity in C57BL/6 mouse assessed as effect on platelet level at 30 mg/kg, ip administered for 5 days/week for two cycles and measured 60 mins post last dose by cell counter method relative to control; assay type: organism-based; conditions: in vivo, 1 h
[10] = Selectivity ratio of IC50 for N-terminal His-tagged human HDAC11 expressed in baculovirus expression system to IC50 for human N-terminal GST-tagged HDAC6 expressed in baculovirus infected sf9 insect cells
[11] = Toxicity in C57BL/6 mouse assessed as induction of piloerection up to 50 mg/kg, ip administered for 5 days/week for two cycles and measured daily starting from day 1; assay type: organism-based; conditions: in vivo, 120 h
[12] = Toxicity in C57BL/6 mouse assessed as induction of kyphosis up to 50 mg/kg, ip administered for 5 days/week for two cycles and measured daily starting from day 1; assay type: organism-based; conditions: in vivo, 120 h
[13] = Toxicity in C57BL/6 mouse assessed as effect on platelet level at 50 mg/kg, ip administered for 5 days/week for two cycles and measured 60 mins post last dose by cell counter method relative to control; assay type: organism-based; conditions: in vivo, 1 h
Mus musculus [14] = experiment: In vivo inhibition of HDAC6 in C57BL/6 mouse assessed as increase in acetylated tubulin level in spleen cytosolic protein extract at 30 mg/kg, ip measured after 24 hrs by ELISA; assay type: functional, organism-based
[15] = Selectivity ratio of IC50 for N-terminal GST-tagged human HDAC7 (518 to end residues) expressed in baculovirus infected sf9 insect cells to IC50 for human N-terminal GST-tagged HDAC6 expressed in baculovirus infected sf9 insect cells
[16] = Cmax in CD-1 mouse at 5.2 mg/kg, po measured within 6 hrs by LC-MS/MS analysis; assay type: ADME, organism-based; parameters: dose 5.2 mg/kg, route oral; conditions: in vivo
Histone deacetylase = experiment: Inhibition of HDAC in human 697 cells assessed as increase in H3 acetylation at 1000 nM incubated for 16 hrs by ELISA; assay type: cell-based; conditions: human, 697, 16 h, 1 µM
[17] = Stability in human plasma assessed as parent compound remaining at 100 uM after 4 hrs by LC-MS/MS analysis; assay type: ADME, cell-free; conditions: read-out: Stability
[18] = Drug level in C57BL/6 mouse plasma at 30 mg/kg, ip measured after 24 hrs; assay type: ADME, organism-based; conditions: in vivo, BLD = below limit of detection
[19] = Inhibition of C57BL/6 mouse effector T cells proliferation at 1 uM after 72 hrs in absence of regulatory T cells by CFSE dye based flow cytometric assay relative to control
[20] = Toxicity in C57BL/6 mouse assessed as inactivity/hyperactivity up to 50 mg/kg, ip administered for 5 days/week for two cycles and measured daily starting from day 1; assay type: organism-based; conditions: in vivo, 120 h

Cn1c(Sc2ccc(C(=O)NO)cc2)nnc1-c1cccs1
Activity [1]: Toxic
inhibition [2]: Active
Ratio (Mus musculus [3]): 3.5
Activity [4]: Non-Toxic
Activity [5]: Non-Toxic
IC50 697: > 1000 nM
Vd at 6 h [6]: 5.4 L/kg
Activity [7]: Non-Toxic
remaining at […], 5 µM [8]: 95%
Activity [9]: -2%
Ratio IC50 [10]: 119
Activity [11]: Non-Toxic
Activity [12]: Non-Toxic
Activity [13]: -8%
inhibition (Mus musculus [14]): Active
Ratio IC50 [15]: 99
Cmax [16]: 144 ng/mL
inhibition (INH) (Histone deacetylase): Active
remaining at 4 h, 100 µM [17]: 100%
Drug uptake [18]: Bld
inhibition at 72 h, 1 µM [19]: < 5%
Activity [20]: Non-Toxic

Source: ChEMBL document CHEMBL4414648, “Novel Benzohydroxamate-Based Potent and Selective Histone Deacetylase 6 (HDAC6) Inhibitors Bearing a Pentaheterocyclic Scaffold: Design, Synthesis, and Biological Evaluation” (J Med Chem, 2019)
